What follows are compounds tested against Human recombinant PDE4 (Genbank accession no NM—006203) (Homo sapiens, UniProt Q08499) (assay: PDE4 assay (SPA, cleavage of cAMP)). Conditions: 1 hour incubation, test compound up to 10 μM, cAMP 1×10^−5M, read-out: PDE4 IC50 range.
Assay type: biochemical
Procedure: Human recombinant PDE4 (Genbank accession no NM_006203) was incubated for 1 hour with the test compound at concentrations up to 10 μM, with cAMP (1×10^−5M), and with a low amount (0.021 MBq) of radioactively labelled cAMP. At the end of the incubation, the cleavage of the substrate was evaluated by the binding of the AMP product to SPA beads, which generate chemoluminescence when bound to the radioactive tracer. The AMP product inhibited the binding of the radioactive tracer to the beads, and the luminescent signal was competed.
The results were calculated as the molar concentrations resulting in 50% inhibition of the substrate cleavage compared to controls samples, and are expressed as a range of IC50 (M).
The compounds of the present invention were tested in the PDE4 assay.

Chain of Human recombinant PDE4 (Genbank accession no NM—006203) (Q08499 1-673 isoform Q08499-2): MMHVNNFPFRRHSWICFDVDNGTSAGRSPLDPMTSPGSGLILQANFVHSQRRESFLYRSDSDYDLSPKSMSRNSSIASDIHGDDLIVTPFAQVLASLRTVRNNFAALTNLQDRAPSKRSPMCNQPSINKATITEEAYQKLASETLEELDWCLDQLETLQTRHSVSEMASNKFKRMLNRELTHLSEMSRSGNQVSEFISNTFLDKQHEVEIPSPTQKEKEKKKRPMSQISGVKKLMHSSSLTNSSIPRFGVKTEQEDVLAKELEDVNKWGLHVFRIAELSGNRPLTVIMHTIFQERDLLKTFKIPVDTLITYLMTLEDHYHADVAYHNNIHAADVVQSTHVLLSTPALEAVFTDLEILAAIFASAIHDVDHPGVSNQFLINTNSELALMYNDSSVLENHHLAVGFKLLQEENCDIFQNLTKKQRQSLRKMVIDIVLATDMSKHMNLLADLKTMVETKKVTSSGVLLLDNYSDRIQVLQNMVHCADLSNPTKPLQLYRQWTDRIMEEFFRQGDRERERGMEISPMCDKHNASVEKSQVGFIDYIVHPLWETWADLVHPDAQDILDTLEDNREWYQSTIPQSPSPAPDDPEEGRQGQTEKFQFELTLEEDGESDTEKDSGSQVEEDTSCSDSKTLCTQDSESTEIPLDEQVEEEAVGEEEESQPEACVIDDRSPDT

`COc1ccc(-c2ccc3c(c2)COC3=O)c(OCc2ccc(S(C)(=O)=O)cc2)c1OC` [Compound 142, 5-[2-(4-Methanesulfonyl-benzyloxy)-3,4-dimethoxy-phenyl]-3H-isobenzofuran-1-one] and `COc1ccc(-c2ccc3c(c2)COC3=O)c(OCc2cccc(S(C)(=O)=O)c2)c1OC` [Compound 143, 5-[2-(3-Methanesulfonyl-benzyloxy)-3,4-dimethoxy-phenyl]-3H-isobenzofuran-1-one] cannot be ordered by IC50: less than 0.1 µM for the first, less than 0.1 µM for the second.

`COc1ccc(-c2ccc3c(c2)COC3=O)c(OCc2cccc(S(N)(=O)=O)c2)c1OC` [Compound 144, 3-[2,3-Dimethoxy-6-(1-oxo-1,3-dihydro-isobenzofuran-5-yl)-phenoxymethyl]-benzenesulfonamide] and `COc1ccc(-c2ccc3c(c2)COC3=O)c(OCc2cccc(S(=O)(=O)N(C)C)c2)c1OC` [Compound 145, 3-[2,3-Dimethoxy-6-(1-oxo-1,3-dihydro-isobenzofuran-5-yl)-phenoxymethyl]-N,N-dimethyl-benzenesulfonamide] cannot be ordered by IC50: less than 0.1 µM for the first, less than 0.1 µM for the second.

First: COc1ccc(-c2ccc3c(c2)COC3=O)c(OCc2cccc(C(N)=O)c2)c1OC [Compound 146, 3-[2,3-Dimethoxy-6-(1-oxo-1,3-dihydro-isobenzofuran-5-yl)-phenoxymethyl]-benzamide]
Second: COc1ccc(-c2ccc3c(c2)CNC3=O)c(OCc2cccc(C(N)=O)c2)c1OC [Compound 159, 3-[2,3-Dimethoxy-6-(1-oxo-2,3-dihydro-1H-isoindol-5-yl)-phenoxymethyl]-benzamide]
The IC50 of the first is lower: less than 0.1 µM for the first, 0.1 to 0.5 µM for the second. The first is the more potent here.

`COc1ccc(-c2ccc3c(c2)CNC3=O)c(OCCC(C)C)c1OC` [Compound 147, 5-[3,4-Dimethoxy-2-(3-methyl-butoxy)-phenyl]-2,3-dihydro-isoindol-1-one] and `COc1ccc(-c2ccc3c(c2)CNC3=O)c(OCC(C)C)c1OC` [Compound 174, 5-(2-Isobutoxy-3,4-dimethoxy-phenyl)-2,3-dihydro-isoindol-1-one] cannot be ordered by IC50: less than 0.1 µM for the first, less than 0.1 µM for the second.

`COc1ccc(-c2ccc3c(c2)CNC3=O)c(OCC(C)(C)C)c1OC` [Compound 148, 5-[2-(2,2-Dimethyl-propoxy)-3,4-dimethoxy-phenyl]-2,3-dihydro-isoindol-1-one] and `COc1ccc(-c2ccc3c(c2)CNC3=O)c(OCCC(C)(C)C)c1OC` [Compound 152, 5-[2-(3,3-Dimethyl-butoxy)-3,4-dimethoxy-phenyl]-2,3-dihydro-isoindol-1-one] cannot be ordered by IC50: less than 0.1 µM for the first, less than 0.1 µM for the second.

First: COc1ccc(-c2ccc3c(c2)CNC3=O)c(OCC2CCC2)c1OC [Compound 149, 5-(2-Cyclobutylmethoxy-3,4-dimethoxy-phenyl)-2,3-dihydro-isoindol-1-one]
Second: COc1ccc(-c2ccc3c(c2)CNC3=O)c(OCC2(CO)COC2)c1OC [Compound 151, 5-[2-(3-Hydroxymethyl-oxetan-3-ylmethoxy)-3,4-dimethoxy-phenyl]-2,3-dihydro-isoindol-1-one]
The IC50 of the first is lower: less than 0.1 µM for the first, 0.1 to 0.5 µM for the second. The first is the more potent here.

`COc1ccc(-c2ccc3c(c2)CNC3=O)c(OCc2ccc(S(C)(=O)=O)cc2)c1OC` [Compound 150, 5-[2-(4-Methanesulfonyl-benzyloxy)-3,4-dimethoxy-phenyl]-2,3-dihydro-isoindol-1-one] and `COc1ccc(-c2ccc3c(c2)CNC3=O)c(OCc2ccc(S(N)(=O)=O)cc2)c1OC` [Compound 161, 4-[2,3-Dimethoxy-6-(1-oxo-2,3-dihydro-1H-isoindol-5-yl)-phenoxymethyl]-benzenesulfonamide] cannot be ordered by IC50: less than 0.1 µM for the first, less than 0.1 µM for the second.

`COc1ccc(-c2ccc3c(c2)CNC3=O)c(OCc2ccc(C(N)=O)cc2)c1OC` [Compound 153, 4-[2,3-Dimethoxy-6-(1-oxo-2,3-dihydro-1H-isoindol-5-yl)-phenoxymethyl]-benzamide] and `CNC(=O)c1ccc(COc2c(-c3ccc4c(c3)CNC4=O)ccc(OC)c2OC)cc1` [Compound 155, 4-[2,3-Dimethoxy-6-(1-oxo-2,3-dihydro-1H-isoindol-5-yl)-phenoxymethyl]-N-methyl-benzamide] cannot be ordered by IC50: less than 0.1 µM for the first, less than 0.1 µM for the second.

`COc1ccc(-c2ccc3c(c2)CNC3=O)c(OCC(C)(C)CO)c1OC` [Compound 154, 5-[2-(3-Hydroxy-2,2-dimethyl-propoxy)-3,4-dimethoxy-phenyl]-2,3-dihydro-isoindol-1-one] and `COC(=O)C(C)(C)COc1c(-c2ccc3c(c2)CCC3=O)ccc(OC)c1OC` [Compound 165, 3-[2,3-Dimethoxy-6-(1-oxo-indan-5-yl)-phenoxy]-2,2-dimethyl-propionic acid methyl ester] cannot be ordered by IC50: less than 0.1 µM for the first, less than 0.1 µM for the second.

`COc1ccc(-c2ccc3c(c2)CNC3=O)c(OCc2ccc(C(=O)N(C)C)cc2)c1OC` [Compound 156, 4-[2,3-Dimethoxy-6-(1-oxo-2,3-dihydro-1H-isoindol-5-yl)-phenoxymethyl]-N,N-dimethyl-benzamide] and `COc1ccc(-c2ccc3c(c2)CNC3=O)c(OCc2cccc(C(=O)N(C)C)c2)c1OC` [Compound 157, 3-[2,3-Dimethoxy-6-(1-oxo-2,3-dihydro-1H-isoindol-5-yl)-phenoxymethyl]-N,N-dimethyl-benzamide] cannot be ordered by IC50: less than 0.1 µM for the first, less than 0.1 µM for the second.

`COc1ccc(-c2ccc3c(c2)CNC3=O)c(OCc2cccc(S(N)(=O)=O)c2)c1OC` [Compound 158, 3-[2,3-Dimethoxy-6-(1-oxo-2,3-dihydro-1H-isoindol-5-yl)-phenoxymethyl]-benzenesulfonamide] and `COc1ccc(-c2ccc3c(c2)CNC3=O)c(OCc2cccc(S(C)(=O)=O)c2)c1OC` [Compound 160, 5-[2-(3-Methanesulfonyl-benzyloxy)-3,4-dimethoxy-phenyl]-2,3-dihydro-isoindol-1-one] cannot be ordered by IC50: less than 0.1 µM for the first, less than 0.1 µM for the second.

`COC(=O)C(C)(C)COc1c(-c2cccc3c2CCC3=O)ccc(OC)c1OC` [Compound 162, 3-[2,3-Dimethoxy-6-(1-oxo-indan-4-yl)-phenoxy]-2,2-dimethyl-propionic acid methyl ester] and `COc1ccc(-c2cccc3c2CCC3=O)c(OCC(C)C)c1OC` [Compound 166, 4-(2-Isobutoxy-3,4-dimethoxy-phenyl)-indan-1-one] cannot be ordered by IC50: less than 0.1 µM for the first, less than 0.1 µM for the second.

Compared with `COc1ccc(-c2cccc3c2CCC3=O)c(OCC2(C)COC2)c1OC` [Compound 163, 4-[3,4-Dimethoxy-2-(3-methyl-oxetan-3-ylmethoxy)-phenyl]-indan-1-one], `COc1ccc(-c2cccc3c2COC3=O)c(OCC2(C)COC2)c1OC` [Compound 164, 4-[3,4-Dimethoxy-2-(3-methyl-oxetan-3-ylmethoxy)-phenyl]-3H-isobenzofuran-1-one] is higher in IC50: less than 0.1 µM for the first, 0.1 to 0.5 µM for the second.

`COc1ccc(-c2cc(OC)c(OC)c3c2CCC3=O)c(OCC(C)C)c1OC` [Compound 167, 4-(2-Isobutoxy-3,4-dimethoxy-phenyl)-6,7-dimethoxy-indan-1-one] and `COc1ccc(-c2ccc(OC)c3c2CCC3=O)c(OCC(C)C)c1OC` [Compound 168, 4-(2-Isobutoxy-3,4-dimethoxy-phenyl)-7-methoxy-indan-1-one] cannot be ordered by IC50: 0.1 to 0.5 µM for the first, no less than 0.5 µM for the second.

`COc1ccc(-c2ccc3c(c2)CCC3=O)c(OCC(C)C)c1OC` [Compound 169, 5-(2-Isobutoxy-3,4-dimethoxy-phenyl)-indan-1-one] and `COc1ccc(-c2ccc3c(c2)COC3=O)c(OCC(C)C)c1OC` [Compound 170, 5-(2-Isobutoxy-3,4-dimethoxy-phenyl)-3H-isobenzofuran-1-one] cannot be ordered by IC50: less than 0.1 µM for the first, less than 0.1 µM for the second.

`COc1ccc(-c2ccc3c(c2)C(C)N(C)C3=O)c(OCC(C)C)c1OC` (stereo not shown) [Compound 171, 5-(2-Isobutoxy-3,4-dimethoxy-phenyl)-2,3-dimethyl-2,3-dihydro-isoindol-1-one] and `COc1ccc(-c2ccc3c(c2)CN(C)C3=O)c(OCC(C)C)c1OC` [Compound 172, 5-(2-Isobutoxy-3,4-dimethoxy-phenyl)-2-methyl-2,3-dihydro-isoindol-1-one] cannot be ordered by IC50: no less than 0.5 µM for the first, no less than 0.5 µM for the second.

Compared with `COc1ccc(-c2cccc3c2CNC3=O)c(OCC(C)C)c1OC` [Compound 173, 4-(2-Isobutoxy-3,4-dimethoxy-phenyl)-2,3-dihydro-isoindol-1-one], `COc1ccc(-c2cccc3c2COC3=O)c(OCC(C)C)c1OC` [Compound 175, 4-(2-Isobutoxy-3,4-dimethoxy-phenyl)-3H-isobenzofuran-1-one] is lower in IC50: 0.1 to 0.5 µM for the first, less than 0.1 µM for the second.

First: COc1ccc(-c2ccc3c(c2)OCC3=O)c(OCC(C)C)c1OC [Compound 176, 6-(2-Isobutoxy-3,4-dimethoxy-phenyl)-benzofuran-3-one]
Second: COc1ccc(-c2cccc3c2CCC3=O)c(OCC2(COC(=O)NC(C)C)CC2)c1OC [Compound 180, Isopropyl-carbamic acid 1-[2,3-dimethoxy-6-(1-oxo-indan-4-yl)-phenoxymethyl]-cyclopropylmethyl ester]
The IC50 of the first is higher: 0.1 to 0.5 µM for the first, less than 0.1 µM for the second. The second is the more potent here.

`COc1ccc(-c2cccc3c2CCC3=O)c(OCC2(CO)CC2)c1OC` [Compound 177, 4-[2-(1-Hydroxymethyl-cyclopropylmethoxy)-3,4-dimethoxy-phenyl]-indan-1-one] and `COCC1(COc2c(-c3cccc4c3CCC4=O)ccc(OC)c2OC)CC1` [Compound 178, 4-[3,4-Dimethoxy-2-(1-methoxymethyl-cyclopropylmethoxy)-phenyl]-indan-1-one] cannot be ordered by IC50: less than 0.1 µM for the first, less than 0.1 µM for the second.

`CCNC(=O)OCC1(COc2c(-c3cccc4c3CCC4=O)ccc(OC)c2OC)CC1` [Compound 179, Ethyl-carbamic acid 1-[2,3-dimethoxy-6-(1-oxo-indan-4-yl)-phenoxymethyl]-cyclopropylmethyl ester] and `COc1ccc(-c2cccc3c2CCC3=O)c(OCC2(COC(=O)NCc3ccccc3)CC2)c1OC` [Compound 181, Benzyl-carbamic acid 1-[2,3-dimethoxy-6-(1-oxo-indan-4-yl)-phenoxymethyl]-cyclopropylmethyl ester] cannot be ordered by IC50: less than 0.1 µM for the first, less than 0.1 µM for the second.
